{"source": "patent US10668059B2", "about": "“Compositions and methods for the prevention and treatment of mast cell-induced vascular leakage” (Duke University, priority 2012, dated 2020)", "key": {"DENV [1]": {"tested_on": "DENV", "experiment": "Evans Blue perfusion model of DENV-induced vascular leakage in WT mice", "type": "in vivo", "conditions": "i.p. 1×10^6 pfu DENV, 1 day after infection, versus uninfected baseline", "protocol": "Uninfected mice, or mice infected with 1×10^6 pfu of DENV were injected with 100 μL of 5% Evans Blue dye 30 minutes prior to euthanasia. […] This contrast is particularly striking in the liver, a Dengue-target organ.\n(§1) Serum was obtained from uninfected mice, DENV-infected and untreated mice, and mice that received MC-stabilizing or MC-product targeting treatments 24 hr after infection. Error bars represent the SEM of values obtained from individual animals n≥3.\nAs expected, Sash mice, which are MC-deficient model (see, e.g., Grimbaldestron, M. A. et al. (2005) Am. J. Pathol. 167:835-848), have undetectable serum levels of MCPT1 as baseline, as do uninfected congenic wild-type (WT) controls (FIG. 2A). To examine vascular leakage, mice infected with DENV were injected by tail vein with the tracking dye, Evans Blue, 30 minutes prior to euthanasia at a 24 hr time point.\nUsing this Evans Blue perfusion model, the extent of vascular leakage induced in 24 hr after i.p. instillation of 1×10^6 plaque-forming units (pfu) of DENV in WT and Sash mice was determined. […]\nDue to the contributions of MCs to many pathological inflammatory disorders, there are a number of available drugs that target MCs or products that they produce after activation. […] Drugs were administered once, 30 minutes after i.p. instillation of 1×106 DENV and vascular leakage assessed 1 day after infection."}, "DENV [2]": {"tested_on": "DENV", "experiment": "Hematocrit analysis in DENV-infected WT mice", "type": "in vivo", "conditions": "i.p. 1×10^6 pfu DENV, 1 day after infection, versus uninfected baseline", "protocol": "as §1\nTo support the observation of increased dye leakage, hematocrit analysis was also performed using blood samples from mice. This test is one that is used in some cases to diagnose DENV pathology clinically by measuring the packed red blood cell volume from the blood and, therefore, it is a measure of plasma loss (see, e.g., Special Programme for Research and Training in Tropical Diseases, WHO Dengue: guidelines for diagnosis, treatment, prevention, and control. (2009) New ed. Geneva:TDR:World Health Organization). […] These findings cumulatively point to a pivotal role for MCs in promoting DENV-induced increased in vascular permeability.\nDue to the contributions of MCs to many pathological inflammatory disorders, there are a number of available drugs that target MCs or products that they produce after activation. […] This hypothesis was tested by blocking DENV induced vascular leakage using a panel of such drugs. […] Drugs were administered once, 30 minutes after i.p. instillation of 1×106 DENV and vascular leakage assessed 1 day after infection."}}}
{"molecule": "CN1CCC(=C2c3ccccc3CC(=O)c3sccc32)CC1", "note": "[ketotifen]", "values": [{"measurement": "levels of tissue dye detection compared to baseline levels", "setting": "DENV [1]", "result": "not statistically different from baseline levels"}, {"measurement": "hematocrit values compared to baseline levels", "setting": "DENV [2]", "result": "not statistically different from baseline levels"}]}
